The OPERA property sets (Mansouri et al. 2018)

| Compound | logP |
| --- | --- |
| CC(C)N1C(=O)c2ccccc2NS1(=O)=O | 2.34 |
| Cc1ccc(S(=O)(=O)Oc2c(C(=O)c3ccc(Cl)cc3Cl)c(C)nn2C)cc1 | 3.9 |
| CCOP(=O)(Sc1ccccc1)Sc1ccccc1 | 3.48 |
| Clc1nc(Cl)nc(Nc2ccccc2Cl)n1 | 3.88 |
| CCO/N=C(\OC(=O)c1ccccc1)c1c(OC)ccc(Cl)c1OC | 3.73 |
| CC12CC1(C)C(=O)N(c1cc(Cl)cc(Cl)c1)C2=O (stereo not drawn) | 3.08 |
| CCCOP(=S)(OCCC)SCC(=O)N1CCCCC1C (stereo not drawn) | 4.04 |
| C#CCOS(=O)OC1CCCCC1Oc1ccc(C(C)(C)C)cc1 (stereo not drawn) | 5 |
| CCOP(=S)(OCC)Oc1cc(-c2ccccc2)on1 | 3.73 |
| CC(C)OC(=O)C(C(=O)OC(C)C)=C1SCCS1 | 2.88 |
| OC(c1ccc(Cl)cc1)(c1ccc(Cl)cc1)C(Cl)(Cl)Cl | 5.02 |
| CC(C)OP(=O)(OC(C)C)SCc1ccccc1 | 3.34 |
| O=C(NC(=O)c1c(F)cccc1F)Nc1cc(Cl)c(F)c(Cl)c1F | 4.56 |
